3 compounds from ChEMBL document CHEMBL3352755, “Synthesis and influenza virus inhibitory activities of carbosilane dendrimers peripherally functionalized with hemagglutinin-binding Peptide” (J Med Chem, 2014) can be followed below.

The structures appear in SMILES notation. Where only a bound is given, the exact number is not on record here.

Broadly, the IC50 is the concentration that inhibits the measured activity by half. A low value points to greater potency.

One data set has as its system Influenza A virus. Put plainly: Antiviral activity against Influenza A virus (A/Puerto Rico/8/34(H1N1)) infected in MDCK cells after 2 days using crystal violet staining by plaque assay. The data set is classed as functional, organism-based. As to conditions: A/Puerto Rico/8/1934(H1N1), 48 h.
Data set [1] is described as follows: Antiviral activity against Influenza A virus (A/Aichi/2/1968(H3N2)) infected in MDCK cells after 2 days using crystal violet staining by plaque assay. Format: functional, cell-based. To be noted: 48 h.
The test system of data set [2] is MDCK. Put plainly: Cytotoxicity against MDCK cells at 10 times IC50 in antiviral assay after 2 days by WST-1 cell counting assay. The data set is classed as cell-based, Canis lupus familiaris. As to conditions: dog, 48 h. In general terms: Formazan colour is commonly taken as a measure of viable cells.
Data set [3] is described as follows: Hemolytic activity in chicken erythrocytes at 30 to 40 uM after 24 hrs by spectrophotometry. The data set is classed as ADME, cell-based, Gallus gallus. As to conditions: erythrocyte.
Data set [4] is described as follows: Critical micelle concentration of the compound in PBS using N-phenyl-1-naphthylamine by fluorescence assay. Format: ADME. As to conditions: buffer.
The test system of data set [5] is MDCK. Put plainly: Cytotoxicity against MDCK cells at 200 uM after 2 days by WST-1 cell counting assay. As to conditions: dog, 48 h. The data set is classed as cell-based, Canis lupus familiaris.
The nature of data set [6]: Hemolytic activity in chicken erythrocytes at 48 uM after 24 hrs by spectrophotometry. The data set is classed as ADME, cell-based, Gallus gallus, Erythrocyte. To be noted: read-out: Activity.
Data set [7] can be described thus: Hemolytic activity in chicken erythrocytes at 240 uM after 24 hrs by spectrophotometry. Format: ADME, cell-based, Gallus gallus, Erythrocyte. To be noted: read-out: Activity.

As for `CC(C)C[C@H](NC(=O)[C@H](CCCNC(=N)N)NC(=O)[C@H](C)N)C(=O)N1CCC[C@H]1C(=O)N[C@@H](CCCNC(=N)N)C(=O)NCCC[Si](CCCNC(=O)[C@H](CCCNC(=N)N)NC(=O)[C@@H]1CCCN1C(=O)[C@H](CC(C)C)NC(=O)[C@H](CCCNC(=N)N)NC(=O)[C@H](C)N)(CCCNC(=O)[C@H](CCCNC(=N)N)NC(=O)[C@@H]1CCCN1C(=O)[C@H](CC(C)C)NC(=O)[C@H](CCCNC(=N)N)NC(=O)[C@H](C)N)c1ccccc1`, the concentration for half-maximal inhibition (IC50) is 12.6 µM in the data set on Influenza A virus and 5.7 µM in data set [1]. The Activity result (in the data set on MDCK [2]; in data set [3]) was “Non-toxic” throughout. Further, the CMC in data set [4] amounted to 3.9 µM.
As to `CC(C)C[C@H](NC(=O)[C@H](CCCNC(=N)N)NC(=O)[C@H](C)N)C(=O)N1CCC[C@H]1C(=O)N[C@@H](CCCNC(=N)N)C(=O)NCCC[Si](CCCNC(=O)[C@H](CCCNC(=N)N)NC(=O)[C@@H]1CCCN1C(=O)[C@H](CC(C)C)NC(=O)[C@H](CCCNC(=N)N)NC(=O)[C@H](C)N)(CCCNC(=O)[C@H](CCCNC(=N)N)NC(=O)[C@@H]1CCCN1C(=O)[C@H](CC(C)C)NC(=O)[C@H](CCCNC(=N)N)NC(=O)[C@H](C)N)CCCNC(=O)[C@H](CCCNC(=N)N)NC(=O)[C@@H]1CCCN1C(=O)[C@H](CC(C)C)NC(=O)[C@H](CCCNC(=N)N)NC(=O)[C@H](C)N`, the IC50 (in the data set on Influenza A virus; in data set [1]) was > 400 µM each time. Also, the Activity result (in the data set on MDCK [5]; in data set [3]) was “Non-toxic” throughout.
Take `CC(C)C[C@H](NC(=O)[C@H](CCCNC(=N)N)NC(=O)[C@H](C)N)C(=O)N1CCC[C@H]1C(=O)N[C@@H](CCCNC(=N)N)C(=O)NCCC[Si](CCCNC(=O)[C@H](CCCNC(=N)N)NC(=O)[C@@H]1CCCN1C(=O)[C@H](CC(C)C)NC(=O)[C@H](CCCNC(=N)N)NC(=O)[C@H](C)N)(CCCNC(=O)[C@H](CCCNC(=N)N)NC(=O)[C@@H]1CCCN1C(=O)[C@H](CC(C)C)NC(=O)[C@H](CCCNC(=N)N)NC(=O)[C@H](C)N)CCC[Si](C)(C)CCC[Si](CCCNC(=O)[C@H](CCCNC(=N)N)NC(=O)[C@@H]1CCCN1C(=O)[C@H](CC(C)C)NC(=O)[C@H](CCCNC(=N)N)NC(=O)[C@H](C)N)(CCCNC(=O)[C@H](CCCNC(=N)N)NC(=O)[C@@H]1CCCN1C(=O)[C@H](CC(C)C)NC(=O)[C@H](CCCNC(=N)N)NC(=O)[C@H](C)N)CCCNC(=O)[C@H](CCCNC(=N)N)NC(=O)[C@@H]1CCCN1C(=O)[C@H](CC(C)C)NC(=O)[C@H](CCCNC(=N)N)NC(=O)[C@H](C)N`: the IC50 in the data set on Influenza A virus was 0.72 µM; in data set [1], 0.6 µM. The Activity result with MDCK [2] was “Non-toxic”. In data set [6], the hemolysis at 24 h, 48 µM is 46%. Also, the hemolysis at 24 h, 240 µM in data set [7] was 85%. Also, the CMC in data set [4] is 4 µM.
